{"source": "BindingDB's records for patent US9427428", "about": "(Janssen Ireland, 2016)", "target": "T1, Genome polyprotein [810-3010] (Hepatitis C virus genotype 1b (isolate Con1), UniProt Q9WMX2)", "T1 construct": "810-3010", "T1 sequence (Q9WMX2 810-3010)": "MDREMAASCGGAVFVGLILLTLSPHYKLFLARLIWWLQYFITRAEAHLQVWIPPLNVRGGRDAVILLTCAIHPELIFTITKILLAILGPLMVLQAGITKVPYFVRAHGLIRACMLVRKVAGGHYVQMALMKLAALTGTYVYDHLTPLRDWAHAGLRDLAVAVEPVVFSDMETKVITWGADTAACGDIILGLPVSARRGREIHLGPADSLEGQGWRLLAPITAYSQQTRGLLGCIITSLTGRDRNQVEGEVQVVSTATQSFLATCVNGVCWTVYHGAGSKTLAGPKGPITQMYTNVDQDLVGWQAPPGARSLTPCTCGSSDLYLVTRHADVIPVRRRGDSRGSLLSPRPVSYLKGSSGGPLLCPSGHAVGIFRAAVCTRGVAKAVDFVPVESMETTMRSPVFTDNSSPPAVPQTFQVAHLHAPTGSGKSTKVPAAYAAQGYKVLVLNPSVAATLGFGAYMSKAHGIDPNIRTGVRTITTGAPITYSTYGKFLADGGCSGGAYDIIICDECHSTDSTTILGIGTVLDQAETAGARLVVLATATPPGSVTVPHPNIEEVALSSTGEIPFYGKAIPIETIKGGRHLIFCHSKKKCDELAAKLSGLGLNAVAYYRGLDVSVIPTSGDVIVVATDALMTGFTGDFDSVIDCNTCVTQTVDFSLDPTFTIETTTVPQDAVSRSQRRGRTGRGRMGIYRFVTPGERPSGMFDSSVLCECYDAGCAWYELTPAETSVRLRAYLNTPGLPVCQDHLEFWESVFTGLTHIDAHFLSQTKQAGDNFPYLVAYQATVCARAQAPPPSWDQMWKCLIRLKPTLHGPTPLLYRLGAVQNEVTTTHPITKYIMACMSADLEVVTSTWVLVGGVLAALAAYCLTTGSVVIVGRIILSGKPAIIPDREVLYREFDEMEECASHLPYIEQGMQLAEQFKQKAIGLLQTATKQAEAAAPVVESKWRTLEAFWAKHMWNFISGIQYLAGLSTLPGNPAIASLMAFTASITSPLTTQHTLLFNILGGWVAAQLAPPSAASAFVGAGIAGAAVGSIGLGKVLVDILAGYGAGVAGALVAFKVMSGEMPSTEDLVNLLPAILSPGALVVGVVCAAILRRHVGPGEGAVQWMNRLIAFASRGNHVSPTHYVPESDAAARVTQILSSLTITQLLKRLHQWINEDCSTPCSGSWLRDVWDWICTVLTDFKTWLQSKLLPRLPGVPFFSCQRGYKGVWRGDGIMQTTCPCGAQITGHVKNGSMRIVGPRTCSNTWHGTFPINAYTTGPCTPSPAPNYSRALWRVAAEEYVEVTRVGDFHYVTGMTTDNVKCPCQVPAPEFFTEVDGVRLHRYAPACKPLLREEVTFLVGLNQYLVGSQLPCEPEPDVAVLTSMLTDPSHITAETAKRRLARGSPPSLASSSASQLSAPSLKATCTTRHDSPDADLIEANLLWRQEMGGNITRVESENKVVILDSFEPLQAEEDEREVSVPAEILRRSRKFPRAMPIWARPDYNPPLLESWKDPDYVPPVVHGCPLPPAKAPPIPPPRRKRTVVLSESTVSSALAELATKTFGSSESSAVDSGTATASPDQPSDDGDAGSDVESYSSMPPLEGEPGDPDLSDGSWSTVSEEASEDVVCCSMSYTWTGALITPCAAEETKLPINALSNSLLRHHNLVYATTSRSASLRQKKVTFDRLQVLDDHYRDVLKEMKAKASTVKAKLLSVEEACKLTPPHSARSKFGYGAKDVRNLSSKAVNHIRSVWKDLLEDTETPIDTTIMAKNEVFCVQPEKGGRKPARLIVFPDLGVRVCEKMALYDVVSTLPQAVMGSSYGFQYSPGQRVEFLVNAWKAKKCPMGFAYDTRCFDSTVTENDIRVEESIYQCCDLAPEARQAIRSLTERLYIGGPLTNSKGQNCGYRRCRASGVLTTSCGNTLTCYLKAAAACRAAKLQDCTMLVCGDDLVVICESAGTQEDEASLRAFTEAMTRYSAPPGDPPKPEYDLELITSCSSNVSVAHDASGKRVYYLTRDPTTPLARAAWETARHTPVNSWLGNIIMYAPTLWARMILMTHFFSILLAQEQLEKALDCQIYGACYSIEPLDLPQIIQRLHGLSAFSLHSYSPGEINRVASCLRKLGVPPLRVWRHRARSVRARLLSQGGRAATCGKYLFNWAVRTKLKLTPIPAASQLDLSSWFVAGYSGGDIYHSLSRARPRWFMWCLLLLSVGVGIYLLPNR", "assay": "Stable Replicon Assay", "excerpt": "The assay utilized the stably transfected cell line Huh-7 luc/neo (hereafter referred to as Huh-Luc). This cell line harbors an RNA encoding a bicistronic expression construct comprising the wild type NS3-NS5B regions of HCV type 1b translated from an Internal Ribosome Entry Site (IRES) from encephalomyocarditis virus (EMCV), preceded by a reporter portion (FfL-luciferase), and a selectable marker portion (neoR, neomycine phosphotransferase). The construct is flanked by 5' and 3' NTRs (non-translated regions) from HCV type 1b. Continued culture of the replicon cells in the presence of G418 (neoR) is dependent on the replication of the HCV RNA. The stably transfected replicon cells that replicate HCV RNA autonomously and to high levels, encoding inter alia luciferase, were used for screening the antiviral compounds. The replicon cells were plated in 384 well plates in the presence of the test and control compounds which were added in various concentrations. Following an incubation of three days, HCV replication was measured by assaying luciferase activity (using standard luciferase assay substrates and reagents and a Perkin Elmer ViewLux™ ultraHTS microplate imager). […] The inhibitory activity of the compound was monitored on the Huh-Luc cells, enabling a dose-response curve for each test compound."}
{"smiles": "CC[C@H](C)[C@H](NC(=O)OC)C(=O)N1CCC[C@H]1c1ncc(-c2ccc3cc(-c4ccc5[nH]c([C@@H]6CCCN6C(=O)[C@@H](NC(=O)OC)[C@@H](C)OC)nc5c4)ccc3c2)[nH]1", "note": "[US9427428, 21]", "values": [{"measurement": "EC50", "result": 2.2, "unit": "nM"}]}
